Data: the supplement of paper PMC7600603

Tests used:
[1] = system: DLD1 NRF2-GOF; conditions: 72 h; CellTiter-Glo viability
Summary of the method: (§1)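 Isogenic DLD1 colorectal cancer cells, either NRF2 wild-type or CRISPR gain-of-function, were grown in DMEM with 10% FBS. They were exposed in 384-well plates to library compounds at 5 concentrations spanning a 10,000-fold range. After 72 h, viability was read by CellTiter-Glo on a Pherastar FS reader and normalised to vehicle wells and 100-μM positive-control wells. EC50 and drug sensitivity score (a normalised area under the curve) came from four-parameter logistic dose-response fits.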

[2] = system: DLD1 NRF2-WT; conditions: 72 h; CellTiter-Glo viability
Summary of the method: as §1

[3] = system: DLD1 NRF2-GOF; test: TC50 cytotoxicity; higher = less toxic; conditions: 72 h; CellTox Green cytotoxicity
Summary of the method: (§2)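 Isogenic DLD1 colorectal cancer cells differing in NRF2 status, one line edited by CRISPR, were cultured in DMEM with 10% FBS and treated in 384-well plates with library compounds at 5 concentrations spanning a 10,000-fold range. Plates were read after 72 h with CellTox Green on a Pherastar FS reader, and signals were normalised to vehicle wells and 100-μM positive-control wells. Cytotoxicity was summarised as TC50 and as a drug sensitivity score, a normalised area under the curve, both from logistic dose-response fits.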

[4] = system: DLD1 NRF2-WT; test: TC50 cytotoxicity; higher = less toxic; conditions: 72 h; CellTox Green cytotoxicity
Summary of the method: as §2

[5] = system: DLD1 NRF2-GOF; test: drug sensitivity score (DSS) cytotoxicity (DSS score); higher = more toxic; extreme values may be limits of the assay; conditions: 72 h; CellTox Green cytotoxicity
Summary of the method: as §2

[6] = system: DLD1 NRF2-WT; test: as above; conditions: 72 h; CellTox Green cytotoxicity
Summary of the method: as §2

[7] = system: DLD1 NRF2-GOF; test: drug sensitivity score (DSS) viability (DSS score); higher = more sensitive; extreme values may be limits of the assay; conditions: 72 h; CellTiter-Glo viability
Summary of the method: as §1

[8] = system: DLD1 NRF2-WT; test: as above; conditions: 72 h; CellTiter-Glo viability
Summary of the method: as §1

Row | SMILES | EC50 viability [1] [nM] | EC50 viability [2] [nM] | TC50 cytotoxicity [3] [nM] | TC50 cytotoxicity [4] [nM] | drug sensitivity score [5] | drug sensitivity score [6] | drug sensitivity score [7] | drug sensitivity score [8]
1 | c1cn2cc(-c3ccc4cn[nH]c4c3)nc(Nc3ccc(N4CCOCC4)cc3)c2n1 [Entospletinib] | > 5000 | > 5000 | > 5000 | > 5000 | 0 | 0 | 0 | 0
2 | CC[C@@]1(O)C(=O)OCc2c1cc1n(c2=O)Cc2cc3c(CN(C)C)c(O)ccc3nc2-1 [Topotecan] | 1090 | 1500 | 3390 | 2200 | 1.9 | 3.1 | 9.2 | 8.1
3 | C[C@H]1O[C@@H](O[C@H]2[C@@H](O)C[C@H](O[C@H]3[C@@H](O)C[C@H](O[C@H]4CC[C@@]5(C)[C@H](CC[C@@H]6[C@@H]5C[C@@H](O)[C@]5(C)[C@@H](C7=CC(=O)OC7)CC[C@]65O)C4)O[C@@H]3C)O[C@@H]2C)C[C@H](O)[C@@H]1O [Digoxin] | 24.5 | 47.3 | 218 | 326 | 4.6 | 4.3 | 18.8 | 15.8
4 | CCc1cncnc1N1CCN(Cc2nc3cc(C(F)(F)F)ccc3[nH]2)CC1 | 1530 | 1510 | > 10000 | > 10000 | 0 | 0 | 3 | 4.6
5 | CCS(=O)(=O)c1cccc(-c2cc(C(=O)NC3CCN(C)CC3)c(C)c3[nH]c4ncc(C)cc4c23)c1 [TAK-901] | 53.3 | 108 | 83.7 | > 1000 | 5.6 | 2.2 | 11.2 | 7.8
6 | Cc1nc(=O)c2cc(CN(C)c3ccc(C(=O)N[C@@H](CCC(=O)O)C(=O)O)s3)ccc2[nH]1 [Raltitrexed] | 8.3 | 14.7 | > 1000 | > 1000 | 0 | 0 | 18 | 16
7 | Nc1cc(C(F)(F)F)c(-c2cc(N3CCOCC3)nc(N3CCOCC3)n2)cn1 [Buparlisib] | 3130 | 1780 | > 10000 | > 10000 | 0 | 0.4 | 4.2 | 7
8 | CC(=O)O[C@H]1C(=O)[C@@]2(C)[C@H]([C@H](OC(=O)c3ccccc3)[C@]3(O)C[C@H](OC(=O)[C@H](O)[C@@H](NC(=O)c4ccccc4)c4ccccc4)C(C)=C1C3(C)C)[C@]1(OC(C)=O)CO[C@@H]1C[C@@H]2O [Paclitaxel] | 3.9 | 3.2 | > 1000 | 17.4 | 4.7 | 10.5 | 24 | 24.1
9 | CC(C)(C)c1nc(-c2cccc(NS(=O)(=O)c3c(F)cccc3F)c2F)c(-c2ccnc(N)n2)s1 [Dabrafenib] | > 2500 | 993 | > 2500 | > 2500 | 0 | 0 | 0.6 | 1.4
10 | Nc1ccn([C@@H]2O[C@H](CO)[C@@H](O)C2(F)F)c(=O)n1 [Gemcitabine] | 28.4 | 26.7 | > 1000 | > 1000 | 0 | 0 | 10.7 | 11.4
11 | C[C@H]1Oc2cc(cnc2N)-c2c(nn(C)c2C#N)CN(C)C(=O)c2ccc(F)cc21 | > 1000 | > 1000 | > 1000 | > 1000 | 0 | 0 | 1.6 | 0
12 | C=CC[C@@H]1/C=C(\C)C[C@H](C)C[C@H](OC)[C@H]2O[C@@](O)(C(=O)C(=O)N3CCCC[C@H]3C(=O)O[C@H](/C(C)=C/[C@@H]3CC[C@@H](O)[C@H](OC)C3)[C@H](C)[C@@H](O)CC1=O)[C@H](C)C[C@@H]2OC [Tacrolimus] | 844 | 933 | > 10000 | > 10000 | 0 | 0 | 5 | 4.5
